The text below walks through data of patent US20080292586A1 (priority 2005, published 2008).

Molecules are shown by their SMILES. Converted amounts (≈) assume the structure as drawn.

Data set [1] relates to H5N1 Avian influenza virus (A/VN/1203/04). The data set is described as follows: microbe, parasite or virus in culture. It counts as cell-based.
For a further data set, the system named is MDBK cells. The conditions noted are these: bovine.
[2] abbreviates: Influenza A virus, H5N1, MDBK, 72 h.

For orientation: IC25 means the concentration at which the effect reaches the 25% level. For orientation: IC50 means the concentration that gives 50% inhibition. High values mean lower potency, low ones higher potency. One may read the IC90 as the concentration needed for an effect of 90%. Read a high IC90 as a need for much substance. On to `NC(=O)c1ncn([C@@H]2O[C@H](CO)[C@@H](O)[C@H]2O)n1` [Ribavirin], for which, in data set [1], the 25% effect concentration (IC25) worked out at 1.01 µg/mL (≈ 4.14 µM). Moreover, in data set [1] (Influenza A virus, H5N1, MDBK), half-maximal inhibition (IC50) was put at 1.96 µg/mL (≈ 8.03 µM). In data set [1] (setting [2]), this molecule returned an IC50 of 1.69 µg/mL (≈ 6.92 µM) and an IC90 of 5.01 µg/mL (≈ 20.5 µM). Moreover, in the data set on MDBK cells, the “cytotoxicity profile (in words)” value was “toxic at concentrations above that which protected 80% of cells from H5N1 infection”.
